In patent US5475032A, “2,4-disulfonyl phenyl butyl nitrone, its salts, and their use as pharmaceuticals” (Oklahoma Medical Research Foundation, priority 1995, dated 1995):

Tests used:
[1] = system: neuron loss following brain ischemia and reperfusion injury; assay: neuronal density after 5 min bilateral carotid occlusion, compound i.p. 30 min before ischemia (Example 3); type: in vivo, gerbil; conditions: 30 min before ischemia
Description: In the experiments a test compound was administered to groups of six gerbils i.p. as a single dose 30 min before 5 min bilateral carotid occlusion. The density of neuronal nuclei in a 100 micron was measured. Two controls were present--controls which received no test compound and controls which received no test compound and no brain ischemia.

[2] = system: neuron loss following brain ischemia and reperfusion injury; assay: neuronal density, post-ischemia treatment, compound i.p. 30 min after reperfusion following 5 min ischemia (Example 4); type: in vivo, gerbil
[3] = adriamycin acute lethality and its prevention by pretreatment, DBA/2J mice (Example 13); conditions: mouse, in vivo, ip
Description: All injections were intraperitoneal. The acute lethality of adriamycin ranged from 10 to 30 mg/kg.

[4] = adriamycin acute lethality and its prevention by pretreatment, C57BL/6J mice (Example 13); type: in vivo; conditions: mouse, in vivo, ip
Excerpt: All injections were intraperitoneal.

[5] = system: embryonic hippocampal neuronal and neuronal/glial cultures; conditions: extended period of co-incubation; cited from earlier work
[6] = system: rat brains; conditions: infused into rat brains; cited from earlier work
[7] = system: neuronal cultures; conditions: Dichlorofluorescein and increased intracellular free calcium Fura-2; cited from earlier work
[8] = system: glutamine synthetase (GS); assay: inactivation of glutamine synthetase by βAP fragments in cytosolic fractions of neocortex (Example 11); type: biochemical, gerbil; conditions: 10 min incubation prior to assay
Description: (§1) Cytosolic fractions from gerbil neocortex were prepared and enzyme activities determined. Samples were incubated in the presence of different concentrations of the peptide for 10 min prior to assay. Solid symbols represent the effects of the naturally occurring 25-35 fragment. […] Each point is the mean (+/- s.e.) of 5 observations. βAP derived and other cellular sources of free radicals are an important determinant of the initiation and progression of AD.

[9] = system: creatine kinase (CK); assay: inactivation of creatine kinase by βAP fragments in cytosolic fractions of neocortex (Example 11); type: biochemical, gerbil; conditions: 10 min incubation prior to assay
Description: as §1

[10] = system: neurotoxicity; conditions: cited from earlier work

Compound | Neuronal nuclei/100 micron field ([1]; 3.2 mg/kg i.p.) | Neuronal nuclei/100 micron field ([1]; 10 mg/kg i.p.) | Neuronal nuclei/100 micron field ([1]; 32 mg/kg i.p.) | Neuronal nuclei/100 micron field ([1]; 50 mg/kg i.p.) | Neuronal nuclei/100 micron field ([1]; 100 mg/kg i.p.) | Neuronal nuclei/100 micron field ([1]; 320 mg/kg i.p.) | Neuronal nuclei/100 micron field ([1]; 1000 mg/kg i.p.) | Neuronal nuclei/100 micron field ([2]; 50 mg/kg i.p.) | Neuronal nuclei/100 micron field ([2]; 100 mg/kg i.p.) | Neuronal nuclei/100 micron field ([2]; 320 mg/kg i.p.) | other results
CC(C)(C)[N+]([O-])=Cc1ccccc1S(=O)(=O)O [Compound 2-sulfo, N-tert-butyl-α-(2-sulfophenyl) nitrone] | 0.73 Neuronal nuclei/100 micron field | 0.68 Neuronal nuclei/100 micron field | 0.73 Neuronal nuclei/100 micron field | 1.01 Neuronal nuclei/100 micron field | 0.93 Neuronal nuclei/100 micron field | 1.11 Neuronal nuclei/100 micron field | 0.98 Neuronal nuclei/100 micron field | 0.68 Neuronal nuclei/100 micron field | 0.78 Neuronal nuclei/100 micron field | 0.81 Neuronal nuclei/100 micron field | –
CC(C)(C)[N+]([O-])=Cc1cccc(S(=O)(=O)O)c1 [Compound 3-sulfo] | 0.35 Neuronal nuclei/100 micron field | 0.81 Neuronal nuclei/100 micron field | 1.63 Neuronal nuclei/100 micron field | 1.63 Neuronal nuclei/100 micron field | 1.93 Neuronal nuclei/100 micron field | 1.78 Neuronal nuclei/100 micron field | 1.58 Neuronal nuclei/100 micron field | 0.73 Neuronal nuclei/100 micron field | 1.09 Neuronal nuclei/100 micron field | 0.93 Neuronal nuclei/100 micron field | –
COc1cccc2c1C(=O)c1c(O)c3c(c(O)c1C2=O)C[C@@](O)(C(=O)CO)C[C@@H]3O[C@H]1C[C@H](N)[C@H](O)[C@H](C)O1 [adriamycin] | – | – | – | – | – | – | – | – | – | – | LD50 [3]: 25 mg/kg; LD50 [4]: 25 mg/kg
βAP 1-40: beta amyloid peptide 1-40 | – | – | – | – | – | – | – | – | – | – | cytotoxicity [5]: produces cytotoxicity; lesions in rat brains [6]: lesions are produced; oxidative stress [7]: results in oxidative stress
βAP (25-35): proposed breakdown fragment of βAP; naturally occurring 25-35 fragment (GSNKGAIIGLM; Amyloid-beta protein 42; UniProt P05067 696-706, looked up, fragment) | – | – | – | – | – | – | – | – | – | – | inactivation of glutamine synthetase [8]: dose-related inactivation; inactivation of creatine kinase [9]: dose-related inactivation; neurotoxicity [10]: neurotoxic
